Data as given in patent US20150259300A1, “4-(ORTHO)-FLUOROPHENYL-5-FLUOROPYRIMIDIN-2-YL AMINES CONTAINING A SULFONE GROUP” (BAYER PHARMA AKTIENGESELLSCHAFT, priority 2012, published 2015).

Legend:
CDK2/CycE = target: T1, CDK2/CycE (Homo sapiens, UniProt P24941); experiment: CDK2/CycE kinase assay (TR-FRET, Method 2); format: biochemical; details: Method 2, 10 μM ATP
T1 construct: GST; purchased ProQinase GmbH (Freiburg, Germany); host or cells: insect cells (Sf9)
From the text: 2. CDK2/CycE Kinase Assay:
CDK2/CycE -inhibitory activity of compounds of the present invention was quantified employing the CDK2/CycE TR-FRET assay as described in the following paragraphs:
Recombinant fusion proteins of GST and human CDK2 and of GST and human CycE, expressed in insect cells (Sf9) and purified by Glutathion-Sepharose affinity chromatography, were purchased from ProQinase GmbH (Freiburg, Germany). As substrate for the kinase reaction biotinylated peptide biotin-Ttds-YISPLKSPYKISEG (C-terminus in amid form) was used which can be purchased e.g. form the company JERINI Peptide Technologies (Berlin, Germany).
For the assay 50 nl of a 100 fold concentrated solution of the test compound in DMSO was pipetted into a black low volume 384 well microtiter plate (Greiner Bio-One, Frickenhausen, Germany), 2 μl of a solution of CDK2/CycE in aqueous assay buffer [50 mM Tris/HCl pH 8.0, 10 mM MgCl2, 1.0 mM dithiothreitol, 0.1 mM sodium ortho-vanadate, 0.01% (v/v) Nonidet-P40 (Sigma)] were added and the mixture was incubated for […] at 22° C. to allow pre-binding of the test compounds to the enzyme before the start of the kinase reaction. Then the kinase reaction was started by the addition of 3 μl of a solution of adenosine-tri-phosphate (ATP, 16.7 μM=>final conc. in the 5 μl assay volume is 10 μM) and substrate (1.25 μM=>final conc. in the 5 μl assay volume is 0.75 μM) in assay buffer and the resulting mixture was incubated for a reaction time of […] at 22° C. The concentration of CDK2/CycE was adjusted depending of the activity of the enzyme lot and was chosen appropriate to have the assay in the linear range, typical concentrations were in the range of 130 ng/ml. The reaction was stopped by the addition of 5 μl of a solution of TR-FRET detection reagents (0.2 μM streptavidine-XL665 [Cisbio Bioassays, Codolet, France] and 1 nM anti-RB(pSer807/pSer811)-antibody from BD Pharmingen [#558389] and 1.2 nM LANCE EU-W1024 labeled anti-mouse IgG antibody [Perkin-Elmer, product no. AD0077]) in an aqueous EDTA-solution (100 mM EDTA, 0.2% (w/v) bovine serum albumin in 100 mM HEPES/NaOH pH 7.0).
(§1) The resulting mixture was incubated 1 h at 22° C. to allow the formation of complex between the phosphorylated biotinylated peptide and the detection reagents. Subsequently the amount of phosphorylated substrate was evaluated by measurement of the resonance energy transfer from the Eu-chelate to the streptavidine-XL. Therefore, the fluorescence emissions at 620 nm and 665 nm after excitation at 350 nm was measured in a TR-FRET reader, e.g. a Rubystar (BMG Labtechnologies, Offenburg, Germany) or a Viewlux (Perkin-Elmer). The ratio of the emissions at 665 nm and at […] was taken as the measure for the amount of phosphorylated substrate. The data were normalised (enzyme reaction without inhibitor=0% inhibition, all other assay components but no enzyme=100% inhibition).

CDK9/CycT1 = target: T2, CDK9/CycT1 (Homo sapiens, UniProt P50750); experiment: CDK9/CycT1 kinase assay (TR-FRET, Method 1a); format: biochemical; details: for IC50: Method 1a, 10 μM ATP; for Selectivity CDK9/CDK2: derived from Methods 1a. and 2.
T2 construct: Recombinant full-length His-tagged human CDK9 and CycT1; His; purchased Invitrogen PV4131; host or cells: insect cells
From the text: 1a. CDK9/CyeT1 Kinase Assay:
CDK9/CycT1-inhibitory activity of compounds of the present invention was quantified employing the CDK9/CycT1 TR-FRET assay as described in the following paragraphs:
Recombinant full-length His-tagged human CDK9 and CycT1, expressed in insect cells and purified by Ni-NTA affinity chromatography, were purchased from Invitrogen (Cat. No PV4131). As substrate for the kinase reaction biotinylated peptide biotin-Ttds-YISPLKSPYKISEG (C-terminus in amid form) was used which can be purchased e.g. form the company JERINI Peptide Technologies (Berlin, Germany). For the assay 50 nl of a 100 fold concentrated solution of the test compound in DMSO was pipetted into a black low volume 384 well microtiter plate (Greiner Bio-One, Frickenhausen, Germany), 2 μl of a solution of CDK9/CycT1 in aqueous assay buffer [50 mM Tris/HCl pH 8.0, 10 mM MgCl2, 1.0 mM dithiothreitol, 0.1 mM sodium ortho-vanadate, 0.01% (v/v) Nonidet-P40 (Sigma)] were added and the mixture was incubated for 15 min at 22° C. to allow pre-binding of the test compounds to the enzyme before the start of the kinase reaction. Then the kinase reaction was started by the addition of 3 μl of a solution of adenosine-tri-phosphate (ATP, 16.7 μM=>final conc. in the 5 μl assay volume is 10 μM) and substrate (1.67 μM=>final conc. in the 5 μl assay volume is 1 μM) in assay buffer and the resulting mixture was incubated for a reaction time of 25 min at 22° C. The concentration of CDK9/CycT1 was adjusted depending of the activity of the enzyme lot and was chosen appropriate to have the assay in the linear range, typical concentrations were in the range of 1 μg/ml. The reaction was stopped by the addition of 5 μl of a solution of TR-FRET detection reagents (0.2 μM streptavidine-XL665 [Cisbio Bioassays, Codolet, France] and 1 nM anti-RB(pSer807/pSer811)-antibody from BD Pharmingen [#558389] and 1.2 nM LANCE EU-W1024 labeled anti-mouse IgG antibody [Perkin-Elmer, product no. AD0077]) in an aqueous EDTA-solution (100 mM EDTA, 0.2% (w/v) bovine serum albumin in 100 mM HEPES/NaOH pH 7.0).
as §1, with “HTRF” for “TR-FRET”

T2 sequence (P50750 whole entry): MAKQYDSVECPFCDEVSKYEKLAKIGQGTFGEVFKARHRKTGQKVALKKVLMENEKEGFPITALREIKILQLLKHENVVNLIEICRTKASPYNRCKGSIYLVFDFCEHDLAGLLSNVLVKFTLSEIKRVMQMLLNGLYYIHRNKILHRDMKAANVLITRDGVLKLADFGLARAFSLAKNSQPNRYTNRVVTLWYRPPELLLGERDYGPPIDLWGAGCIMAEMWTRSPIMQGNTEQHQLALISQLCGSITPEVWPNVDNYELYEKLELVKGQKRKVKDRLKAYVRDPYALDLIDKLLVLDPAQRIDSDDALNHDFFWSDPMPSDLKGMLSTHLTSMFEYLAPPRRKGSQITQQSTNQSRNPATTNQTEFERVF
T2 sequence (O60563 whole entry partner): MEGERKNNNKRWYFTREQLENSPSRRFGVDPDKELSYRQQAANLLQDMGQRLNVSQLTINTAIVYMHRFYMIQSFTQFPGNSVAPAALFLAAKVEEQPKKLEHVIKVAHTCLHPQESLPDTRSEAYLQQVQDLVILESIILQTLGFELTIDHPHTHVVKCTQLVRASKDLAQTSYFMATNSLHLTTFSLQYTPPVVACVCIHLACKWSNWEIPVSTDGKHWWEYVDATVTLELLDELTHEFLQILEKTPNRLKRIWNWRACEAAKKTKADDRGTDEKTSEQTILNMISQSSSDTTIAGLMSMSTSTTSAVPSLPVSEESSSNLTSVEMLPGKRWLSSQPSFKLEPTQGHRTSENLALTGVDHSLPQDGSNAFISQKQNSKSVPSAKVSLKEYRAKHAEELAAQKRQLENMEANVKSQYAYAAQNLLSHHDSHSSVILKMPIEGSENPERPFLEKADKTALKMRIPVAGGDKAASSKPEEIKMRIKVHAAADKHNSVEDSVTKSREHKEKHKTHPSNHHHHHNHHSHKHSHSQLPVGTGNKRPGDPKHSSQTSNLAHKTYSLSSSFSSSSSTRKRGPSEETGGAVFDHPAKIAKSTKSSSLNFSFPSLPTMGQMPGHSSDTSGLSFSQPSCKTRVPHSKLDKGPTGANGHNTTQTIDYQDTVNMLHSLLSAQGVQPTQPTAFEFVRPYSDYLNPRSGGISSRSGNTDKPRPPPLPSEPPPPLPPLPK

| SMILES | IC50 (CDK2/CycE) [nM] | IC50 (CDK9/CycT1) [nM] | Selectivity CDK9/CDK2 (CDK9/CycT1) |
| --- | --- | --- | --- |
| CC(C)S(=O)(=O)Cc1cccc(Nc2ncc(F)c(-c3ccc(F)cc3F)n2)c1 [Example 2, 4-(2,4-Difluorophenyl)-5-fluoro-N-{3-[(propan-2-ylsulfonyl)methyl]phenyl}pyrimidin-2-amine] | 1200 | 50 | 24 |
| COCCS(=O)(=O)Cc1cccc(Nc2ncc(F)c(-c3ccc(F)cc3F)n2)c1 [Example 4, 4-(2,4-Difluorophenyl)-5-fluoro-N-(3-{[(2-methoxyethyl)sulfonyl]methyl}phenyl)pyrimidin-2-amine] | 2600 | 130 | 20 |
| CS(=O)(=O)Cc1cccc(Nc2ncc(F)c(-c3ccc(F)cc3F)n2)c1 [Example 5, 4-(2,4-Difluorophenyl)-5-fluoro-N-{3-[(methylsulfonyl)methyl]phenyl}pyrimidin-2-amine] | 470 | 51 | 9.1 |
| CCCS(=O)(=O)Cc1cccc(Nc2ncc(F)c(-c3ccc(F)cc3F)n2)c1 [Example 8, 4-(2,4-difluorophenyl)-5-fluoro-N-{3-[(propylsulfonyl)methyl]phenyl}pyrimidin-2-amine] | 570 | 39 | 15 |
| O=S(=O)(Cc1cccc(Nc2ncc(F)c(-c3ccc(F)cc3F)n2)c1)C1CC1 [Example 9, N-{3-[(Cyclopropylsulfonyl)methyl]phenyl}-4-(2,4-difluorophenyl)-5-fluoropyrimidin-2-amine] | 410 | 13 | 32 |
| CS(=O)(=O)Cc1cc(F)cc(Nc2ncc(F)c(-c3cc(F)c(F)cc3F)n2)c1 [Example 11, 5-Fluoro-N-{3-fluoro-5-[(methylsulfonyl)methyl]phenyl}-4-(2,4,5-trifluorophenyl)pyrimidin-2-amine] | > 20000 | 74 | >270 |
| CS(=O)(=O)Cc1cc(F)cc(Nc2ncc(F)c(-c3ccc(F)c(F)c3F)n2)c1 [Example 12, 5-fluoro-N-{3-fluoro-5-[(methylsulfonyl)methyl]phenyl}-4-(2,3,4-trifluorophenyl)pyrimidin-2-amine] | 350 | 25 | 14 |

Further compounds by falling IC50 (CDK2/CycE), results first:

| IC50 (CDK2/CycE) [nM] | IC50 (CDK9/CycT1) [nM] | Selectivity CDK9/CDK2 (CDK9/CycT1) | SMILES |
| --- | --- | --- | --- |
| 5800 | 130 | 28 | CS(=O)(=O)Cc1cc(F)cc(Nc2ncc(F)c(-c3ccc(F)cc3F)n2)c1 [Example 10, 4-(2,4-Difluorophenyl)-5-fluoro-N-{3-fluoro-5-[(methylsulfonyl)methyl]phenyl}pyrimidin-2-amine] |
| 1760 | 14 | 122 | CS(=O)(=O)Cc1cc(Nc2ncc(F)c(-c3ccc(F)cc3F)n2)cc(S(F)(F)(F)(F)F)c1 [Example 6, 4-(2,4-Difluorophenyl)-5-fluoro-N-{3-[(methylsulfonyl)methyl]-5-(pentafluoro-λ^6-sulfanyl)phenyl}pyrimidin-2-amine] |
| 1000 | 110 | 10 | CC(C)(C)S(=O)(=O)Cc1cccc(Nc2ncc(F)c(-c3ccc(F)cc3F)n2)c1 [Example 3, N-{3-[(tert-Butylsulfonyl)methyl]phenyl}-4-(2,4-difluorophenyl)-5-fluoropyrimidin-2-amine] |
| 580 | 13 | 44 | CCCS(=O)(=O)Cc1cc(F)cc(Nc2ncc(F)c(-c3ccc(F)cc3F)n2)c1 [Example 13, 4-(2,4-Difluorophenyl)-5-fluoro-N-{3-fluoro-5-[(propylsulfonyl)methyl]phenyl}pyrimidin-2-amine] |
